System: Alopercurus myosuroides
Test: Example 1 post-emergence greenhouse trial, ALOMY
Assay type: in vivo
Conditions: growth stage 13, 21 DAT, g ai/ha: A-1 4, B 62.5
Procedure: In the examples below, using the method of S. R. Colby (1967) “Calculating synergistic and antagonistic responses of herbicide combinations”, Weeds 15, p. 22ff., the value E, which is expected if the activity of the individual active compounds is only additive, was calculated: [formula] • where • X=percent activity using active herbicide A at an application rate a; • Y=percent activity using active herbicide B (e.g. mesotrione) at an application rate b; • E=expected activity (in %) by A+B at application rates a+b. If the value found experimentally is higher than the value E calculated according to Colby, a synergistic effect is present. The culture containers used were plastic pots containing loamy sand with approximately 3.0% of humus as substrate. The seeds of the test plants were sown separately for each species. For the post-emergence treatment, the test plants were grown to a plant height of from 3 to 15 cm, depending on the plant habit, and only then treated with the active compounds which had been suspended or emulsified in water. To this end, the test plants were either sown directly, and grown in the same containers, or they were first grown separately as seedlings and transplanted into the test containers a few days prior to treatment. […] During this time, the plants were tended and their response to the individual treatments was evaluated. […]

Compound | % herbicidal activity [%]
CCOC(=O)COc1ccccc1Oc1nc(-n2c(=O)cc(C(F)(F)F)n(C)c2=O)c(F)cc1Cl [A-1, ethyl 2-[2-[[3-chloro-5-fluoro-6-[3-methyl-2,6-dioxo-4-(trifluoromethyl)pyrimidin-1-yl]-2-pyridyl]oxy]phenoxy]acetate] | 85
CS(=O)(=O)c1ccc(C(=O)C2C(=O)CCCC2=O)c([N+](=O)[O-])c1 [B, mesotrione] | 0

Source: patent US12543736B2, “Herbicidal compositions comprising mesotrione” (BASF SE, priority 2024, dated 2026)
